In a melting point compilation (Tetko et al.) one finds melting point data, which are given here for 111 compounds.

Usually melting point stands for the temperature of the solid-liquid transition. For `COc1ccc(-c2coc3cc(O)ccc3c2=O)cc1`, the melting point was found to be 256 °C.

The compound `COC(=O)C1(S(=O)(=O)c2ccc(Br)cc2)CCCCC1` had a melting point of 112 °C.

`COc1ccc([P+]2([S-])Nn3c(nnc3C(F)(F)F)S2)cc1` (stereo unspecified) came in with a melting point of 211 °C.

Regarding `C=Cc1ccccc1OC`, the melting point is 29 °C.

`COc1cc([N+](=O)[O-])c(Cl)cc1N` came in with a melting point of 131 to 133 °C.

Turning to `OC12CC=CCC1(O)CC=CC2` (stereo unspecified), the melting point came out at 83 °C.

Turning to `COCCc1ccc(O)cc1`, the melting point was 44 °C.

`O=C(Oc1c(Cl)cc(Cl)cc1Cl)C(=O)Oc1c(Cl)cc(Cl)cc1Cl`: the melting point is 188 to 192 °C.

The compound `O=C(Nc1cc(Cl)ccc1Cl)C(C(F)(F)F)C(F)(F)F` yielded a melting point of 211 °C.

Consider `CC(=O)N(C)C(=O)COC(=O)c1ccccc1`, for which the melting point was 102 °C.

Compound `COc1coc(CSP(=O)(OC)OC)cc1=O` came in with a melting point of 96 °C.

In turn, `N#CC(O)C(Cl)(Cl)Cl` (stereo unspecified) had a melting point of 61 °C.

For `Brc1ccc2nsnc2c1`, the melting point is 59 to 60 °C.

As for `O=CC=Cn1ccnc1`, the melting point was found to be 118 °C.

As for `CCCCCCCCc1ccc(N)cc1`, the melting point is 20 °C.

The compound `C=CC(=O)OCCCCCCCC(C)C` gave a melting point of -100 °C.

`C=CCSc1nc(=O)[nH]c2c1CCCC2` returned a melting point of 207 to 209 °C.

As to `CCc1ccc(NC(N)=S)cc1`, the melting point stood at 138 °C.

As to `Nc1ccc(S(=O)(=O)c2ccc(NC(=O)CCC(=O)O)cc2)cc1`, the melting point worked out at 157 °C.

For the compound `C1CSC2=C(S1)SC(=C1SC3=C(SCCS3)S1)S2`, the melting point came to 244 °C.

For the compound `FC(Cl)C(F)(F)C(F)(F)Cl` (stereo unspecified), the melting point was -97 °C.

As for `CC1(C)OC(=O)C(=Cc2cccc([N+](=O)[O-])c2)C(=O)O1`, the melting point was 322 °C.

In turn, `CC(C)(C)P(c1ccc2ccccc2c1-c1cccc2ccccc12)C(C)(C)C` yielded a melting point of 147 to 149 °C.

As for `CC(=O)OC(C)=O`, the melting point was -73 °C.

`CC(=O)c1cc2c(cc1C)C(C)(C)C(C)CC2(C)C` (stereo unspecified) showed a melting point of 54.5 °C.

For the compound `CCNc1cc2oc(=O)cc(C(F)(F)F)c2cc1C`, the melting point was 184 °C.

Take `N#C/C(=N/Nc1ccc(Cl)cc1)c1nc(-c2ccccc2)cs1`: the melting point came to 168 °C.

With `Nc1ccc(NC(=O)C(F)(F)F)cc1`, the melting point was found to be 118 °C.

The compound `O=C(O)c1c[nH]cn1` yielded a melting point of 243 to 245 °C.

The compound `C1=CCCCC=C1` returned a melting point of -110 °C.

For the compound `CNC(N)=O`, the melting point was determined as 103 °C.

Regarding `O=C1NN=C(C(F)(F)F)C1=NNc1ccc(Br)cc1`, the melting point was determined as 212 °C.

`O=C(Nc1ccc([N+](=O)[O-])cc1Cl)C1(F)C(F)(F)C(F)(F)C(F)(F)C(F)(F)C1(F)F` had a melting point of 93 °C.

The compound `O=Cc1c(Sc2ccc(Cl)cc2)nc2sccn12` gave a melting point of 139 to 141 °C.

In the case of `N#Cc1c(C(F)(F)F)cc(Cl)nc1Cl`, the melting point fell in the range of 38 to 40 °C.

`COC(=O)c1ccc([N+](=O)[O-])cc1Cl` had a melting point of 77 to 78 °C.

Compound `CC(=O)OC1CC[C@@]2(C)C(CC[C@@H]3[C@@H]2CC[C@@]2(C)[C@H]3CC[C@]2(O)CCc2ccccc2)C1` (stereo partly specified) gave a melting point of 137 to 139 °C.

As to `CCCCCCCCCCCCCCCCCCOC(=O)CCc1cc(C(C)(C)C)c(O)c(C(C)(C)C)c1`, the melting point came out at 52.5 °C.

With `Cc1cc(O)nc2ccccc12`, the melting point was 226 °C.

Take `NC(=O)N1CCCCC1`: the melting point came out at 105 °C.

In turn, `COc1cccc2onc(N)c12` showed a melting point of 140 to 142 °C.

As for `C#CC1(O)CCC2C3CCC4=C(CCC(=O)C4)C3CCC21C` (stereo unspecified), the melting point came to 170 °C.

On to `CC1=CC(=O)c2c(O)cccc2C1=O`, for which the melting point worked out at 78.5 °C.

Turning to `O=C(Cc1ccccc1)c1ccc(Br)cc1`, the melting point was found to be 111 °C.

`CCCCCCCOc1ccc(C(=O)O)cc1` showed a melting point of 146 °C.

Turning to `O=[N+]([O-])c1ccc2c(c1)-c1ccc([N+](=O)[O-])c3cccc-2c13`, the melting point turned out to be 223 °C.

With `CCc1nc(N)nc(O)c1C`, the melting point was 303 to 304 °C.

In turn, `CC(=O)NC1C(Oc2c[nH]c3ccc(Br)c(Cl)c23)OC(CO)C(O)C1O` (stereo unspecified) yielded a melting point of 246 to 248 °C.

`COc1cc(Cl)nc(OC)n1` gave a melting point of 74 to 76 °C.

The compound `O=S(=O)(O)CCNC(CO)(CO)CO` returned a melting point of 223 to 225 °C.

As for `O=Cc1cc([N+](=O)[O-])ccc1Cl`, the melting point was determined as 79 °C.

On to `Clc1cc(Cl)nc(-c2ccccc2)n1`, for which the melting point turned out to be 96.9 °C.

In turn, `NCCNCCNCCN` returned a melting point of -35 °C.

Take `CSc1nc(N)c(C(=O)c2ccc(Br)cc2)s1`: the melting point was in the range of 163 to 165 °C.

With `C=CC(CO)N1C(=O)c2ccccc2C1=O` (stereo unspecified), the melting point stood at 62.2 °C.

For the compound `COc1cccc(C=O)c1OC`, the melting point is 52 °C.

In turn, `CC(=O)CCc1c[nH]c2ccccc12` came in with a melting point of 94 to 96 °C.

The compound `S=c1sc2nc3ccccc3nc2s1` displayed a melting point of 180 °C.

As for `CN(C)CC(O)c1ccc(O)c(O)c1` (stereo unspecified), the melting point stood at 149 °C.

The compound `Nc1nc(=O)n(C2CSC(CO)O2)cc1F` (stereo unspecified) had a melting point of 138 °C.

`Fc1cc(Br)ccc1CBr` gave a melting point of 35 °C.

Compound `O=Cc1ccc2c(c1[N+](=O)[O-])C(=O)c1c(Cl)c(Cl)c(Cl)c(Cl)c1C2=O` registered a melting point of 265 to 268 °C.

`Cn1cc([N+](=O)[O-])c(=O)[nH]c1=O`: the melting point was 267 to 270 °C.

Consider `CC1(C)N=C(c2ccccc2)C(C)(C)N1O`, for which the melting point fell in the range of 78.6 to 80.4 °C.

The compound `COC(=O)c1c(C)c(Br)c(OC)c(Br)c1OC` returned a melting point of 60 °C.

`COC(=O)c1cc(O)c(O)c(O)c1` had a melting point of 262 °C.

For the compound `O[C@@H](c1ccccc1)[C@@H](O)c1ccccc1`, the melting point worked out at 149 °C.

Regarding `FC(F)(F)C(F)(F)C(F)(F)c1cc(-c2ccccc2)[nH]n1`, the melting point came to 85 °C.

As for `CC(=O)c1c(-c2ccccc2)cc2ccccc2c1O`, the melting point stood at 55 °C.

As for `Cc1cc(Cl)c(Cl)cc1Cl`, the melting point came out at 82.4 °C.

As for `O=C(CCC(=O)Oc1ccccc1)Oc1ccccc1`, the melting point was found to be 121 °C.

The compound `CCCCC(=O)Cl` gave a melting point of -110 °C.

As to `CC(=O)CC(C)(C)C`, the melting point is -64 °C.

Consider `N#Cc1c(O)nsc1Nc1ccccc1Cl`, for which the melting point stood at 100 °C.

For `O=C(Nc1ccccc1SSc1ccccc1NC(=O)c1ccccc1)c1ccccc1`, the melting point was 142 °C.

As for `CCOC(=O)c1ccc(COC(C)=O)o1`, the melting point came out at 42.3 °C.

`O=S(=O)(Cl)c1ccc(Br)c(Br)c1`: the melting point came to 34 °C.

`O=[N+]([O-])c1ccc(ON=Cc2cc(Br)c(O)c(Br)c2)c([N+](=O)[O-])c1` had a melting point of 196 °C.

On to `CC1=NNC(=N)Nc2c1c(=O)n(-c1ccccc1)c1ccccc21`, for which the melting point is 227 °C.

As for `Cc1cc(C)c2c(c1)CC2=O`, the melting point came out at 48 °C.

`COc1ccc(-c2csc(/C(C#N)=C/c3ccc(Cl)cc3Cl)n2)cc1` showed a melting point of 142 °C.

As to `CC(=O)Nc1ccccc1CCN(CCc1ccccc1NC(C)=O)C(C)=O`, the melting point lay within 188 to 190 °C.

`COc1ccc(Oc2ccc(C(F)(F)F)cc2[N+](=O)[O-])cc1` came in with a melting point of 45 to 47 °C.

`CC(C)(C)CC(C)(C)c1ccc(O)cc1` showed a melting point of 84.5 °C.

`C=C1C(=O)C23C(OC(C)=O)CC4C(C)(C)CCC(OC(C)=O)C4(C=O)C2C(OC(C)=O)CC1C3OC(C)=O` (stereo unspecified): the melting point was 212 °C.

Consider `CCOC(=O)C(C#N)=Cc1ccc(Cl)cc1`, for which the melting point lay within 137 to 138 °C.

In turn, `CC(C)(C)c1ccc(-c2nnc(-c3ccc(-c4ccccc4)cc3)o2)cc1` yielded a melting point of 137 °C.

`O=C1C=CC(=O)c2ccccc21` yielded a melting point of 128 °C.

On to `CCOC(=O)c1cnc2sc(C(F)(F)F)nn2c1=N`, for which the melting point was determined as 198 °C.

`Cc1n[nH]c(C)c1N` showed a melting point of 192 °C.

Compound `OC(CS)C(O)CS` (stereo unspecified) gave a melting point of 83 °C.

Turning to `N=C(N)NCCC[C@H](NC(=O)OCc1ccccc1)C(=O)O`, the melting point was 173 to 175 °C.

As for `NCCOCCO`, the melting point is -11 °C.

Consider `CCC(=O)C=Cc1ccccc1`, for which the melting point is 38.5 °C.

Compound `CCOc1cc(C(=O)O)cc(OCC)c1OCC` came in with a melting point of 112 °C.

Take `C#CC1(O)CCC2C3CCC4C(C)(C)CCCC4(C)C3CCC21C` (stereo unspecified): the melting point lay in the range of 156 to 158 °C.

As for `O=C(NC(=O)c1c(F)cccc1F)Nc1ccc(Cl)cc1`, the melting point was 239 °C.

As to `CC(CCC(=O)O)C1CCC2C3CC(O)C4=CC(O)CCC4(C)C3CCC12C` (stereo unspecified), the melting point lay in the range of 200 to 201 °C.

Take `CC12CCC(=O)C=C1CCC1C2CCC2(C)C(O)CCC12` (stereo unspecified): the melting point came out at 153 °C.

Compound `COC(=O)c1cccc(Cl)c1` showed a melting point of 21 °C.

The compound `NCCN(CCN)N(O)N=O` registered a melting point of 98 to 106 °C.

With `ON=Cc1ccc(Cl)cc1Cl`, the melting point was in the range of 134 to 136 °C.

With `Nc1ccc(-c2cnco2)cc1`, the melting point was 150 to 151 °C.

On to `[O-][P+](c1ccccc1)(c1ccccc1)C1C=C(c2ccccc2)OC2=C1CCCC2` (stereo unspecified), for which the melting point worked out at 177 °C.

In turn, `Br/C=C/Br` gave a melting point of -6.5 °C.

In turn, `CCCCCCCCCCCCCCCC(=O)OCCC` yielded a melting point of 20.4 °C.

In turn, `CC(=O)OC1CCC2(C)C(CCC3(C)C2C(=O)C=C2C4CC(C)(C(=O)O)CCC4(C)CCC23C)C1(C)C` (stereo unspecified) came in with a melting point of 323 °C.

`O=C1c2ccccc2C(=O)N1CC1CNCCO1` (stereo unspecified): the melting point lay in the range of 138 to 143 °C.

`CC(=O)C(=CN)Cc1ccccc1` showed a melting point of 95 °C.

Turning to `N#Cc1ccc(Cn2cccn2)cc1`, the melting point is 80 to 82 °C.

Turning to `CC(CN1CC(=O)NC(=O)C1)N1CC(=O)NC(=O)C1` (stereo unspecified), the melting point amounted to 238 °C.
